Data reported in the NIST ThermoML archive (doi:10.1021/acs.jced.9b00041).
Numbers after ± are expanded uncertainties.

Legend:
[1] = 298.15 K; 101.33 kPa; Liquid; Vibrating tube method
[2] = wn = mass fraction of the nth substance listed; conditions: 298.15 K; 100 kPa; Liquid; Vibrating tube method; w2 = 0.089

| SMILES | mass density [1] [kg/m3] | mass density [2] [kg/m3] |
| --- | --- | --- |
| CC(O)C(=O)O (centres undefined) [2-hydroxypropanoic acid] | 1202.57 ± 35 |  |
| CCCC[n+]1ccn(C)c1.O=S(=O)([N-]S(=O)(=O)C(F)(F)F)C(F)(F)F | 1436.46 ± 10 |  |
| CC(=O)CCC(=O)O [4-oxopentanoic acid] | 1135.71 ± 10 |  |
| CC(O)C(=O)O (centres undefined) [2-hydroxypropanoic acid] + O |  | 1202.57 ± 10 |
